Values of other authors in US20080044468A1, “Processes For The Preparation Of Oral Dosage Formulations Of Modafinil” (priority 2002, published 2008).

Conditions: background statement

SMILES: NC(=O)C[S+]([O-])C(c1ccccc1)c1ccccc1 (stereo not shown) [modafinil]
- Solubility in water: less than 1 mg/ml
